Measurements as given in ChEMBL document CHEMBL3244251, “Mitomycin antibiotics. Synthesis of 7-methoxy-1-(N-pyrrolidino)mitosene and its methiodide” (J Med Chem, 1978).
Calls of active or inactive are those of the source. The calls are words filed in the database; no cut-off is given here.

Key:
[1] = system: Enterobacteria phage lambda; test: Induction of lambda phage production in streptomycin-dependent lysogenic Escherichia coli W1709 (lambda) assessed as ratio of plaques in treated culture to control at 0.5 ug/ml; format: functional
[2] = system: P388; test: In vivo antitumor activity against mouse P388 cells relative to control; format: functional, organism-based
[3] = system: Escherichia coli; test: Toxicity in streptomycin-dependent lysogenic Escherichia coli W1709 (lambda) at 12.5 ug/ml; format: organism-based; settings: in vivo
[4] = system: Enterobacteria phage lambda; test: Induction of lambda phage production in streptomycin-dependent lysogenic Escherichia coli W1709 (lambda) assessed as ratio of plaques in treated culture to control at 12.5 ug/ml; format: functional
[5] = system: Bacillus subtilis; test: Antibacterial activity against Bacillus subtilis assessed as growth inhibition at 50 ug/ml in 100 mm disk at pH 8.0 by single-disk method; format: functional; settings: read-out: IZ
[6] = system: Bacillus subtilis; test: Antibacterial activity against Bacillus subtilis assessed as growth inhibition at 12.5 ug/ml in 100 mm disk at pH 8.0 by single-disk method; format: functional; settings: read-out: IZ
[7] = system: Bacillus subtilis; test: Antibacterial activity against Bacillus subtilis assessed as growth inhibition at 3.1 ug/ml in 100 mm disk at pH 8.0 by single-disk method; format: functional; settings: read-out: IZ
[8] = system: Bacillus subtilis; test: Antibacterial activity against Bacillus subtilis assessed as growth inhibition at 0.8 ug/ml in 100 mm disk at pH 8.0 by single-disk method; format: functional; settings: read-out: IZ
[9] = system: Bacillus subtilis; test: Antibacterial activity against Bacillus subtilis assessed as growth inhibition at 0.2 ug/ml in 100 mm disk at pH 8.0 by single-disk method; format: functional; settings: read-out: IZ
[10] = system: Enterobacteria phage lambda; test: Induction of lambda phage production in streptomycin-dependent lysogenic Escherichia coli W1709 (lambda) assessed as ratio of plaques in treated culture to control at 3.1 ug/ml; format: functional
[11] = system: Enterobacteria phage lambda; test: Induction of lambda phage production in streptomycin-dependent lysogenic Escherichia coli W1709 (lambda) assessed as ratio of plaques in treated culture to control at 0.8 ug/ml; format: functional
[12] = system: Enterobacteria phage lambda; test: Induction of lambda phage production in streptomycin-dependent lysogenic Escherichia coli W1709 (lambda) assessed as ratio of plaques in treated culture to control at 0.2 ug/ml; format: functional
[13] = system: Enterobacteria phage lambda; test: Induction of lambda phage production in streptomycin-dependent lysogenic Escherichia coli W1709 (lambda) assessed as ratio of plaques in treated culture to control at 0.0125 ug/ml; format: functional
[14] = system: Escherichia coli; test: Toxicity in streptomycin-dependent lysogenic Escherichia coli W1709 (lambda) at 0.5 ug/ml; format: organism-based; settings: in vivo
[15] = system: P388; test: In vivo antitumor activity against mouse P388 cells at 6.4 mg/kg relative to control; format: functional
[16] = system: Escherichia coli; test: Toxicity in streptomycin-dependent lysogenic Escherichia coli W1709 (lambda) at 3.1 ug/ml; format: organism-based; settings: in vivo
[17] = system: Escherichia coli; test: Toxicity in streptomycin-dependent lysogenic Escherichia coli W1709 (lambda) at 0.8 ug/ml; format: organism-based; settings: in vivo
[18] = system: Bacillus subtilis; test: Antibacterial activity against Bacillus subtilis assessed as growth inhibition at 16.6 ug/ml in 100 mm disk at pH 8.0 by single-disk method; format: functional; settings: read-out: IZ
[19] = system: Bacillus subtilis; test: Antibacterial activity against Bacillus subtilis assessed as growth inhibition at 5.5 ug/ml in 100 mm disk at pH 8.0 by single-disk method; format: functional; settings: read-out: IZ

| Structure (SMILES) | T/C [1] | Activity [2] | Activity [3] | T/C [4] | zone of inhibition at 50 µg/mL [5] [mm] | zone of inhibition at 12.5 µg/mL [6] [mm] | zone of inhibition at 3.1 µg/mL [7] [mm] | zone of inhibition at 0.8 µg/mL [8] [mm] | zone of inhibition at 0.2 µg/mL [9] [mm] | T/C [10] | T/C [11] | T/C [12] | T/C [13] | Activity [14] | T/C [15] [%] | Activity [16] | Activity [17] | zone of inhibition at 16.6 µg/mL [18] [mm] | zone of inhibition at 5.5 µg/mL [19] [mm] |
| --- | --- | --- | --- | --- | --- | --- | --- | --- | --- | --- | --- | --- | --- | --- | --- | --- | --- | --- | --- |
| COC1=C(C)C(=O)c2c(c(COC(N)=O)c3n2CCC3N2CCCC2)C1=O (configuration not stated) | 1.2 | inactive | Toxic | 2.1 | 33 | 27.8 | 22 | 15.3 | 11.3 | 3.6 | 1.6 | 1.3 |  |  |  |  |  |  |  |
| CO[C@@]12[C@H](COC(N)=O)C3=C(C(=O)C(C)=C(N)C3=O)N1C[C@@H]1N[C@@H]12 [MITOMYCIN] | 17.5 |  |  |  |  |  |  | 32 | 22.8 |  |  |  | 8.6 | Toxic | 283 |  |  |  |  |
| COC1=C(C)C(=O)c2c(c(COC(N)=O)c3n2CCC3OC(C)=O)C1=O (configuration not stated) |  |  | Toxic | > 49 | 35 |  |  |  |  | > 74 | > 49 | 27.9 |  |  | 162 | Toxic | Toxic | 35 | 31.2 |
| COC1=C(C)C(=O)c2c(c(COC(N)=O)c3n2CCC3[N+]2(C)CCCC2)C1=O (configuration not stated) | 1.1 | inactive |  | 2.2 | 14.2 | 10 |  |  |  | 1.2 | 1.1 | 1.1 |  |  |  |  |  |  |  |
